For four compounds, IC50, AC50 and EC50 results are on record in ChEMBL document CHEMBL1201862, “PubChem BioAssay data set” (2004).

SMILES strings stand for the structures. The source made the active and inactive calls.

Assay [1] has as its target T1, Bcl-2-related protein A1 (Mus musculus, UniProt Q07440).
T1 sequence (Q07440 whole entry): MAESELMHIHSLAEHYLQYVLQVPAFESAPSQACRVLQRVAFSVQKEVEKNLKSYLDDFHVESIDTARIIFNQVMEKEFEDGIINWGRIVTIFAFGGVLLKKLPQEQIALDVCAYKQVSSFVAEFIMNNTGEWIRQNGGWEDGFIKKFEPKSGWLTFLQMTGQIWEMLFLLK
Kind of assay: Bfl-1 inhibitors blocking BH3 peptide binding, confirmation, biochemical, TR-FRET, mouse Bfl-1 (AID 621).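 Also: TR-FRET binding of GST-Bfl-1 to FITC-labelled Bid peptide via terbium antibody.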

Assay [2] deals with Glyceraldehyde-3-phosphate dehydrogenase (Homo sapiens, UniProt P04406).
Assay [3] deals with T1, Bcl-2-related protein A1. Kind of assay: Bfl-1 binding inhibitors, SAR follow-up, biochemical, fluorescence polarization (AID 1070). A general note: In fluorescence polarisation assays a small probe gives low polarisation when free and higher when bound to something large.
Assay [4] relates to Jurkat. Kind of assay: antigen receptor-induced NF-kB inhibitors, dose response, Jurkat, luciferase reporter, luminescence, B- and T-cell (AID 489004).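 Also: NF-kB luciferase reporter Jurkat cells stimulated with PMA plus ionomycin.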 Particulars: Homo sapiens. Type of assay: functional, cell-based. (In a reporter assay the amount or activity of a reporter protein is the signal.)
In assay [5] the test system is INS1. Kind of assay: beta cell apoptosis inhibitors, cytokine rescue, dose response, luminescence, retest (AID 449756).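 Also: cell death triggered by IL-1 beta plus TNF-alpha plus IFN-gamma mixture; protective hits raise ATP signal compared with cytokine alone wells.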 It is filed as functional, cell-based. As to conditions: Rattus norvegicus.
Assay [6] can be described thus: cytotoxicity toward NIH3T3 fibroblasts, dose response, counter-screen, cell-based, ATP luminescence, mouse fibroblasts (AID 2010).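 Also: cells exposed to compound for about 90 hours before reading.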 Type of assay: functional.
In assay [7] the target is T2, Neuropeptide Y receptor type 1 (Homo sapiens, UniProt P25929).
T2 sequence (P25929 whole entry): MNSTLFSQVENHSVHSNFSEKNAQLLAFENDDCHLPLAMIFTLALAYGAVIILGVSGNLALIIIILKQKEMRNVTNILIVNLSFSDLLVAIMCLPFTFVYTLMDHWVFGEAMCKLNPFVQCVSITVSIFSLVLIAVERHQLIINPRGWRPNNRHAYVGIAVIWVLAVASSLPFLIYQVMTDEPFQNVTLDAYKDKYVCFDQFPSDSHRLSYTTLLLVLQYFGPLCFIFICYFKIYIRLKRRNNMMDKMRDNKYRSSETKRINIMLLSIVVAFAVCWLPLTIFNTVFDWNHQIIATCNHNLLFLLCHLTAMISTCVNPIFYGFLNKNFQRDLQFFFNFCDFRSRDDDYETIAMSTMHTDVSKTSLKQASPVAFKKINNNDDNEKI
Kind of assay: NPY-Y1 receptor antagonist potency, dose response, cell-based (AID 1277). It is filed as functional.

A short description of assay [8]: cells. Type of assay: functional, cell-based. As to conditions: HEK-CNG.
Assay [9] can be described thus: cytotoxicity in HEK-293T NF-kB-Luc cells, dose response, cytotoxicity control for B/T-cell NF-kB inhibitor project, cell-based, uHTS hits (AID 489019).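 Also: IC50 reflects cytotoxicity as loss of cell viability.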 It is filed as functional.
Assay [10] addresses T3, Neuropeptide Y receptor type 2 (Homo sapiens, UniProt P49146).
T3 sequence (P49146 whole entry): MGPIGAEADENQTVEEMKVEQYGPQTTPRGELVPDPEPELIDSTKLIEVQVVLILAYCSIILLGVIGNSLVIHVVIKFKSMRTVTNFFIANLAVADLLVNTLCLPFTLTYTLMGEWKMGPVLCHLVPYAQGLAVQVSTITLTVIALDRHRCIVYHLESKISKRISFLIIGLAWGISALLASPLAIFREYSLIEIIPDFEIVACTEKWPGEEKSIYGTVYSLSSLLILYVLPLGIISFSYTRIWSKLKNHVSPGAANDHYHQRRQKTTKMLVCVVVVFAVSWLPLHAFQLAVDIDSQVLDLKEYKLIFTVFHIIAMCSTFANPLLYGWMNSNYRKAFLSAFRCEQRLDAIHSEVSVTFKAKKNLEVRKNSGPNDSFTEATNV
Kind of assay: NPY-Y2 antagonist potency, selectivity check, dose response, counter-screen for NPY-Y1 antagonist project, cell-based (AID 1278). It is filed as functional. In general terms: A counterscreen serves to expose hits that act by an unwanted route or on another target.

A short description of assay [11]: ZM109 Env clade C HIV-1 fusion inhibitors, dose response, HeLa effector, CEM target cells, luciferase, cherry-pick (AID 652058). Type of assay: functional, cell-based.
Assay [12] in a line: CEM21 lymphoblast cell cytotoxicity, dose response, cytotoxicity control for viral fusion inhibitor project, CellTiter-Glo luminescence, cherry-picked (AID 652042).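 Also: potency for signal decrease meaning cytotoxicity.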 Type of assay: functional, cell-based.
Assay [13] has as its target T4, COUP transcription factor 2 (Homo sapiens, UniProt P24468).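 Also: HEK293 cells transiently cotransfected with COUP-TFII expression vector and reporter; luciferase reporter luminescence driven by COUP-TFII from the pX2-168 reporter plasmid.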
T4 sequence (P24468 whole entry): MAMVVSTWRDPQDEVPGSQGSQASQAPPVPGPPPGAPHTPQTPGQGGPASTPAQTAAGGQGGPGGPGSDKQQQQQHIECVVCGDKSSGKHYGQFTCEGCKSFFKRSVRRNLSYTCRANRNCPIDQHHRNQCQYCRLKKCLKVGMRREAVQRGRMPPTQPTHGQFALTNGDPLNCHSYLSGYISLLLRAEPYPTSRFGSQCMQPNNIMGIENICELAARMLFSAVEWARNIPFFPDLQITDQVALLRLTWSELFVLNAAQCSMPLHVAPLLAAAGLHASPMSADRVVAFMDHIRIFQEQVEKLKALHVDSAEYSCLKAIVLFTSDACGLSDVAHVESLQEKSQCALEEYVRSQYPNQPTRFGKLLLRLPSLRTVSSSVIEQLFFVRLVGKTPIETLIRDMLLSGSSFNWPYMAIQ
Kind of assay: Luminescence-based cell-based high throughput dose response assay to identify inhibitors of COUP-TFII (NR2F2). Type of assay: functional.

A short description of assay [14]: inhibitors of firefly luciferase expression or activity, dose response, H4 neuroglioma cells, luminescence (AID 1990). Type of assay: functional, cell-based.
Assay [15] is described as follows: Luminescence Cell-Based Dose Response HTS to Identify Inhibitors of 5'UTR Stem-Loop Driven Prion Protein mRNA Translation in H4 Neuroglioblastoma Cells. [Related pubchem assays: 1827 (Project Summary), 1813 (Primary HTS)]. Type of assay: functional.
Assay [16] has as its target Galanin receptor type 3 (Homo sapiens, UniProt O60755). Kind of assay: Fluorescence-based cell-based primary high throughput dose response assay to identify antagonists of the Galanin Receptor 3 (GalR3). It is filed as functional.
Assay [17] in a line: inhibitors of HIV Env-driven cell fusion, dose response, cherry-pick (AID 652057). It is filed as functional, cell-based.
Assay [18] in a line: cells.
Assay [19] is described as follows: inhibitors of SNCA 5'UTR-driven reporter translation, confirmation, H4 neuroglioma cells, luminescence (AID 1988). Type of assay: functional, cell-based.
Assay [20] can be described thus: inhibitors of clade B AD8 Env fusion, dose response, cell-based, cherry-pick (AID 652062).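 Also: luciferase signal from cell-cell fusion driven by HIV-1 clade B AD8 Env; potency is for inhibitors of fusion seen as a drop in luminescence.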 Type of assay: functional.
Assay [21] can be described thus: off-target signal loss in HeLa-CEM21 co-culture – HeLa F-luc CTL cells, cherry-picked, counter-screen for HIV-1 Env fusion inhibitor project, dose response (AID 652040).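 Also: potency for signal decrease marking cytotoxic or nonspecific inhibition.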 Type of assay: functional, cell-based.
The nature of assay [22]: inhibitors of intracellular T. cruzi replication, confirmation, NIH3T3 host cells, beta-gal luminescence (AID 2044).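 Also: intracellular parasites grown in NIH/3T3 mouse fibroblasts as host cells; luminescent beta-galactosidase reporter signal from transgenic T. cruzi replicating inside host cells; inhibitors lower the luminescence signal.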 It is filed as functional, cell-based.
Assay [23] addresses Aspartyl aminopeptidase (Plasmodium falciparum 3D7, UniProt Q8I2J3). Kind of assay: Counterscreen for inhibitors of M1 and M17 aminopeptidases: QFRET-based biochemical high throughput dose response assay for inhibitors of the Plasmodium falciparum M18 Aspartyl Aminopeptidase (PFM18AAP). [Related PubChem assays: 1619 (Screening assay (M17LAP inhibitors).), 1445 (Screening assay (M1AAP inhibitors).)].

The target in assay [24] is Procathepsin L (Homo sapiens, UniProt P07711). Kind of assay: cathepsin L inhibitors, dose response, counter-screen for M1/M17 aminopeptidase inhibitor project, biochemical, QFRET, 1536-well (AID 2214).
The target in assay [25] is T5, Aminopeptidase N (Plasmodium falciparum FcB1/Columbia, UniProt O96935).
T5 sequence (O96935 whole entry): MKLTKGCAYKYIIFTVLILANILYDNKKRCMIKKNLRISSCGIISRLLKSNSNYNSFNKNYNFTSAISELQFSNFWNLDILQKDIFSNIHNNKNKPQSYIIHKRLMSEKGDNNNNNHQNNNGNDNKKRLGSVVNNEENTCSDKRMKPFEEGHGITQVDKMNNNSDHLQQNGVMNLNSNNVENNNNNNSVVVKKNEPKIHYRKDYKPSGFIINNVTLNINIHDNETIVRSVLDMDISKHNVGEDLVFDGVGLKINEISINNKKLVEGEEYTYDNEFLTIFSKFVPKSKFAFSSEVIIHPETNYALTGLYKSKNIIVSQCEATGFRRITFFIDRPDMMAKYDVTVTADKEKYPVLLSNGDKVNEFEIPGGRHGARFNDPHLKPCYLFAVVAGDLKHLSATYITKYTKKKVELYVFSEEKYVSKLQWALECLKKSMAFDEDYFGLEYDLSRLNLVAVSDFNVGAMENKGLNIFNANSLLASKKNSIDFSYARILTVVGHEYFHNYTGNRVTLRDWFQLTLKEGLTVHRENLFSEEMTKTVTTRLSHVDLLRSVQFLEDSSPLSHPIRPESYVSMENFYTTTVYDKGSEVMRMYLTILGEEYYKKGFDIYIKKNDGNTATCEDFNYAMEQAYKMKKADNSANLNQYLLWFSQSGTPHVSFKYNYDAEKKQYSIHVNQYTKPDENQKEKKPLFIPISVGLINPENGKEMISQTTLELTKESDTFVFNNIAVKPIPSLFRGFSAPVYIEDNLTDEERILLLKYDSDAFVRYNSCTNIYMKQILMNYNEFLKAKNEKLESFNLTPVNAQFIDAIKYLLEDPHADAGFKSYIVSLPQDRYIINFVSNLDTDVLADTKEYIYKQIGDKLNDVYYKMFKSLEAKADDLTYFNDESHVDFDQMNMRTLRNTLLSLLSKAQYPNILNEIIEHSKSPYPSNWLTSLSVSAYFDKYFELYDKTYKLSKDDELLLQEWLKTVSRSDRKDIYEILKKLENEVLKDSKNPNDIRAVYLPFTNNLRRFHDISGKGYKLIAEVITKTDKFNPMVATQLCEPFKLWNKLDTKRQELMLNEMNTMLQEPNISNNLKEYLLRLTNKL
Kind of assay: P. falciparum M1AAP inhibitors, biochemical, fluorogenic H-Leu-NHMec substrate, 1536-well (AID 1445). The arrangement: species or system Plasmodium falciparum 3D7, 3D7.

The test system of assay [26] is HeLa. Kind of assay: HeLa cell cytotoxicity, dose response, cytotoxicity control for MITF activator project, CellTiter-Glo luminescence, cherry-pick samples (AID 540259). As to conditions: Homo sapiens. Type of assay: functional, cell-based.
Assay [27] can be described thus: Luminescence Cell-Based Dose Confirmation to Identify Activators of 5'UTR Stem-Loop Driven Alpha-Synuclein mRNA Translation in H4 Neuroglioblastoma Cells. [Related pubchem assays: 1829 (Project Summary), 1814 (Primary HTS)]. It is filed as functional.
The nature of assay [28]: Luminescence Cell-Based Dose Response HTS to Identify Activators of Luciferase Translation or Activity in H4 […] Cells. [Related pubchem assays: 1829 (Project Summary), 1814 (Primary HTS)]. Type of assay: functional.
The nature of assay [29]: Luminescence Cell-Based Dose Response to Identify Activators of 5'UTR Stem-Loop Driven Prion Protein mRNA Translation in H4-C Neuroglioblastoma Cells. [Related pubchem assays: 1829 (Project Summary), 1814 (Primary HTS)]. It is filed as functional.
The subject of assay [30] is H4. Kind of assay: Luminescence Cell-Based Dose Response HTS to Identify Activators of 5'UTR Stem-Loop Driven Prion Protein mRNA Translation in H4 Neuroglioblastoma Cells. [Related pubchem assays: 1829 (Project Summary), 1814 (Primary HTS)]. Type of assay: functional. As to conditions: Homo sapiens.
Assay [31] can be described thus: Luminescence Cell-Based Dose Confirmation HTS to Identify Activators of 5'UTR Stem-Loop Driven Alpha-Synuclein mRNA Translation in H4 Neuroglioblastoma Cells. [Related pubchem assays: 1829 (Project Summary), 1814 (Primary HTS)]. Type of assay: functional.
The nature of assay [32]: Luminescence Cell-Based Dose Response to Identify Activators of Luciferase Translation or Activity in H4-C Neuroglioblastoma Cells. [Related pubchem assays: 1829 (Project Summary), 1814 (Primary HTS)]. Type of assay: functional.

Glyceraldehyde-3-phosphate dehydrogenase, sequence (P04406 whole entry): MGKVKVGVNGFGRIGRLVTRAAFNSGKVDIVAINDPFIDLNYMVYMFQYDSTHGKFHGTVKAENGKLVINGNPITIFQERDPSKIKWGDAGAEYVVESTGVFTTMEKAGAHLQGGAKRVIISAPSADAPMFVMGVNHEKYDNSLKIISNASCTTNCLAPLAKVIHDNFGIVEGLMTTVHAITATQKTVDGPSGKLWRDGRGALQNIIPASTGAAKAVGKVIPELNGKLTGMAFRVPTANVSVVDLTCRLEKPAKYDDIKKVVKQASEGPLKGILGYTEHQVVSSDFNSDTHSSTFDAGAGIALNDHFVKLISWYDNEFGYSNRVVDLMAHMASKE
Galanin receptor type 3, sequence (O60755 whole entry, the tested form may be a part): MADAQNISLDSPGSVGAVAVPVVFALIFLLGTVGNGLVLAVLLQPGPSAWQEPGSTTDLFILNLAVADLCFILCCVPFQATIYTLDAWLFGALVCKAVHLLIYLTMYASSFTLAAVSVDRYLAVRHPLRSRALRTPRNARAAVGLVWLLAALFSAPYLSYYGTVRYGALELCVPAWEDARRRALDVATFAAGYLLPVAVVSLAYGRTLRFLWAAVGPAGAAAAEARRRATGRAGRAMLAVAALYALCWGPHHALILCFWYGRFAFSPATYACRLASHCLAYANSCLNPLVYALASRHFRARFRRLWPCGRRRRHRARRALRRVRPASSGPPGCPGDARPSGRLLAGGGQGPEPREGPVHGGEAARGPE
Procathepsin L, sequence (P07711 whole entry): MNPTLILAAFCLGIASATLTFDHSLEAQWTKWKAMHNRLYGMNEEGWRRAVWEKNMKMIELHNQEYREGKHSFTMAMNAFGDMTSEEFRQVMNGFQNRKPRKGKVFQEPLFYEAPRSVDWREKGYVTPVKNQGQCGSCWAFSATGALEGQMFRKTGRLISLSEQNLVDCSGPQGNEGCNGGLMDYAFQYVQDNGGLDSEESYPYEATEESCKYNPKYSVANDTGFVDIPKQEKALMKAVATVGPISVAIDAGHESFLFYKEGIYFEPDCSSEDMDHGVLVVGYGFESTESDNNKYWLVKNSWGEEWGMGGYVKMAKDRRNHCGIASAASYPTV
Aspartyl aminopeptidase, sequence (Q8I2J3 whole entry): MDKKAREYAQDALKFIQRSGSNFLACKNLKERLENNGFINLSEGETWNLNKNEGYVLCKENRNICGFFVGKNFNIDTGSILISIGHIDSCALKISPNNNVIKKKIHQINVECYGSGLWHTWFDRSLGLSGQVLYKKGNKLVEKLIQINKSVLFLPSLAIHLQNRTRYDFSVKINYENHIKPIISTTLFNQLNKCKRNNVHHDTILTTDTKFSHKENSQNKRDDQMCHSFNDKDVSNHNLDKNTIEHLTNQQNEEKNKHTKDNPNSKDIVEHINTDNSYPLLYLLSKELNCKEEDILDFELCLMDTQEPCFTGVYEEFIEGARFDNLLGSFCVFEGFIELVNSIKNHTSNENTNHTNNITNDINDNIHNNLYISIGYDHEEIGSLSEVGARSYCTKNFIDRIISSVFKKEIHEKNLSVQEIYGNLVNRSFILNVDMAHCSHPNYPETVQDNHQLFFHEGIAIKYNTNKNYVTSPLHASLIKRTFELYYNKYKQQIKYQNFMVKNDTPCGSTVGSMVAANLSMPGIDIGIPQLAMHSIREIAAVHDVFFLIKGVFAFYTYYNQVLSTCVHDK

Take `Cc1ccc(Cl)c(N2C(=O)C(Cl)=C(Cl)C2=O)c1Cl`: the IC50 in assay [1] was 20.1 µM (active); in [2] it was > 100 µM (not active); in [3] it was > 100 µM (not active).
Take `CCCCCCn1c2c(c(=N)c3c1CCC3)CCC2`: the IC50 in assay [4] is 7.15 µM (active); in assay [7], 8.75 µM (active); in assay [9], > 80 µM (inactive); in [10], 14.6 µM (not active); in assay [13], 3.52 µM (active); in assay [16] it was 8.41 µM (active). For the same compound, the AC50 in [5] is 2.04 µM (active); in assay [11] it was 0.949 µM (active); in assay [12] it was 3.33 µM (active); in assay [17], 6.91 µM (active); in [20], 3.19 µM (active); in assay [21], > 70 µM (inactive). For the same compound, the EC50 in assay [6] is > 60 µM (not active); in [8], > 29.9 µM (inactive); in assay [14], 8.02 µM (active); in assay [15], 14.3 µM (active); in [18] it was 0.007 µM (active); in assay [19], 6.52 µM (active). Also, the EC50 in assay [22] is < 0.1 µM (active).
Take `COc1ccc(C2CC(c3c(-c4ccccc4)c4cc(Cl)ccc4[nH]c3=O)=NN2C(=O)CCC(=O)O)cc1` (configuration not stated): the IC50 was > 73.5 µM (not active) in assay [23], > 59.6 µM (not active) in assay [24] and 4.93 µM (active) in assay [25].
On to `COc1cccc(/C(C)=N/N=C(\C)c2cccc(OC)c2)c1`, for which the AC50 in assay [26] was 64.5 µM (active). For the same compound, the EC50 in assay [27] was 0.419 µM (active); in [28] it was 0.488 µM (active); in [29], 1.47 µM (active); in assay [30], 38.7 µM (active); in assay [31], < 0.1 µM (active); in [32] it was 0.36 µM (active).

As a reminder, the IC50 is the concentration needed to halve the response being measured. Broadly, the AC50 is the midpoint of the concentration-response curve, whichever way the signal moves. As a reminder, the EC50 is the concentration at which the effect is half-maximal.
